Measurements as given in patent US9521847B2, “Synergistic weed control from applications of pyridine carboxylic acid herbicides and synthetic auxin herbicides and/or auxin transport inhibitors” (Dow AgroSciences LLC, priority 2014, dated 2016).
Where two headings read alike, the source gives them in different places.

Columns and labels:
[1] = system: ivyleaf morningglory (Ipomoea hederacea, IPOHE); test: Greenhouse postemergence trial, % visual injury; settings: Ipomoea, post-emergence
[2] = system: common chickweed (Stellaria media, STEME); test: Greenhouse postemergence trial, % visual injury; assay type: in vivo; settings: STEME
[3] = system: poinsettia (Euphorbia heterophylla, EPHHL); test: Greenhouse postemergence trial, % visual injury; settings: Euphorbia heterophylla, post-emergence
[4] = system: spring barley (HORVS); test: Greenhouse postemergence trial, crop phytotoxicity (% visual injury)
[5] = system: winter wheat (TRZAW); test: as above; settings: for % visual injury, Obs: TRZAW
[6] = system: wild buckwheat (Polygonum convolvulus, POLCO); test: Greenhouse postemergence trial, % visual injury; assay type: in vivo; settings: for % visual injury, Obs: POLCO
[7] = system: winter wheat (TRZAW); test: Patio postemergence trial, crop phytotoxicity (% visual injury); assay type: in vivo, Triticum aestivum; settings: 20-22 d
Procedure: (§1) The plants were grown for 7-36 days (d) on a fenced, open-air patio. Nutrients and water were added on a regular basis.
(§2) Temperatures and photoperiods were dependent on the natural weather conditions during the trials. Weather conditions during trials were conducive for plant growth and development.

[8] = system: wild pansy (Viola tricolor, VIOTR); test: Greenhouse postemergence trial, % visual injury; settings: VIOTR
[9] = system: spring rape (Brassica napus, BRSNN); test: Greenhouse postemergence trial, % visual injury; settings: Brassica napus, post-emergence, read-out: % visual injury, Obs
[10] = system: common rice (ORYSA); test: Greenhouse postemergence trial, crop phytotoxicity (% visual injury); settings: ORYSA
[11] = system: Canadian thistle (CIRAR, Cirsium arvense); test: Greenhouse postemergence trial, % visual injury;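 note: plants sprayed at second to third true leaf stage, injury scored visually 20-22 d later against solvent-blank sprayed controls, 0 meaning no injury and 100 complete kill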
[12] = system: kochia (KCHSC, Kochia scoparia); test: Greenhouse postemergence trial, % visual injury; assay type: in vivo; settings: for % visual injury Obs: 20-22 d
Procedure: Following the protocol in Example 1, compound 1 and compound 2 were combined with 2,4 D EHE (EC) and applied to kochia (KCHSC, Kochia scoparia) and the phytotoxicity of the herbicidal compositions was measured.
Following the protocol in Example 1, compound 1 (EC) and Compound 2 (SC) were combined with diflufenzopyr and applied to kochia (Kochia scoparia, KCHSC) and the phytotoxicity of the herbicidal composition was measured.

[13] = system: velvetleaf (Abutilon theophrasti, ABUTH); test: Greenhouse postemergence trial, % visual injury; assay type: in vivo; settings: Abutilon theophrasti, post-emergence, ABUTH, read-out: % visual injury, Obs
[14] = system: common lambsquarters (CHEAL, Chenopodium album L.); test: Greenhouse postemergence trial, % visual injury; assay type: in vivo
[15] = system: maize (ZEAMX); test: Greenhouse postemergence trial, crop phytotoxicity (% visual injury); settings: ZEAMX
[16] = system: winter rape (BRSNW, Brassica napus); test: Greenhouse postemergence trial, % visual injury; assay type: in vivo; settings: for % visual injury Obs: 20-22 d
[17] = system: kochia (KCHSC, Kochia scoparia); test: Patio postemergence trial, % visual injury; assay type: in vivo; settings: 20-22 d
Procedure: as §1, §2

[18] = system: pigweed (AMARE, Amaranthus retroflexus); test: Greenhouse postemergence trial, % visual injury; assay type: in vivo; settings: for % visual injury, Obs: AMARE
[19] = system: nutsedge (Cyperus esculentus, CYPES); test: Greenhouse postemergence trial, % visual injury; assay type: in vivo; settings: CYPES
[20] = system: large crabgrass (Digitaria sanguinalis, DIGSA); test: Greenhouse postemergence trial, % visual injury; assay type: in vivo; settings: Digitaria sanguinalis, post-emergence; DIGSA; MCPA EHE 140 g ae/ha; read-out: % visual injury, Obs
[21] = system: spring wheat (TRZAS); test: Small plot field trial (Canada), crop phytotoxicity (% visual injury); assay type: in vivo, Triticum aestivum; settings: 35 g ae/ha alone
Source text: (§3) Small plot field trials were established in Canada to evaluate efficacy and crop safety of Compound 7 with 2,4-D EHE. Trials were established as randomized complete blocks with 3-4 replicates. Individual plots were 2-3 meters (m) wide and 8-10 m long. Applications were made with backpack or tractor-mounted sprayers delivering a spray volume output of 100 liters per hectare (L/ha) using pressurized carbon dioxide (CO2) as a propellant. Compound 7 was combined with 2,4 D EHE (660 g ae/L EC formulation) and applied to spring wheat (TRZAS), and the phytotoxicity of the herbicidal compositions was measured. In addition, the efficacy of the herbicidal composition on Canadian thistle ([…], Cirsium arvense), kochia (KCHSC, Kochia scoparia), mallow (MALPU, Marva pusilla), wild buckwheat (POLCO, Polygonum convolvulus), and lady's thumb (POLPE, Polygonum persicaria) was evaluated.

[22] = system: kochia (KCHSC, Kochia scoparia); test: Small plot field trial (Canada), % visual injury; assay type: in vivo; settings: 35 g ae/ha alone, 46-64 DAA
Procedure: as §3, with “Trials” for “Small plot field trials were established in Canada to evaluate efficacy and crop safety of Compound 7 with 2,4-D EHE. Trials”, “kochia (KCHSC, Kochia” left out, “([…]” for “(MALPU, Marva”

[23] = system: CIRAR = Cirsium arvense (Canadian thistle); test: Small plot field trial (Canada), % visual injury; assay type: in vivo; settings: 35 g ae/ha alone, 46-64 DAA
Procedure: as §3, with “Trials” for “Small plot field trials were established in Canada to evaluate efficacy and crop safety of Compound 7 with 2,4-D EHE. Trials”, “kochia (KCHSC, Kochia” left out, “([…]” for “(MALPU, Marva”

[24] = system: MALPU = Malva pusilla (mallow); test: Small plot field trial (Canada), % visual injury; assay type: in vivo; settings: 35 g ae/ha alone, 26-33 DAA
Procedure: as §3, with “Trials” for “Small plot field trials were established in Canada to evaluate efficacy and crop safety of Compound 7 with 2,4-D EHE. Trials”, “kochia (KCHSC, Kochia” left out, “([…]” for “(MALPU, Marva”

[25] = system: lady's thumb (POLPE, Polygonum persicaria); test: Small plot field trial (Canada), % visual injury; assay type: in vivo; settings: 35 g ae/ha alone, 14-16 DAA
Procedure: as §3, with “Trials” for “Small plot field trials were established in Canada to evaluate efficacy and crop safety of Compound 7 with 2,4-D EHE. Trials”, “kochia (KCHSC, Kochia” left out, “([…]” for “(MALPU, Marva”

[26] = system: wild buckwheat (POLCO, Polygonum convolvulus); test: Small plot field trial (Canada), % visual injury; assay type: in vivo; settings: 35 g ae/ha alone, 15 DAA
Procedure: as §3, with “Trials” for “Small plot field trials were established in Canada to evaluate efficacy and crop safety of Compound 7 with 2,4-D EHE. Trials”, “kochia (KCHSC, Kochia” left out, “([…]” for “(MALPU, Marva”

[27] = system: winter wheat (TRZAW); settings: Triticum aestivum (winter wheat), in vivo
[28] = system: pigweed (AMARE, Amaranthus retroflexus); test: Patio postemergence trial, % visual injury; assay type: in vivo; settings: 20-22 d
Procedure: as §1, §2

[29] = system: soybean (Glycine max, GIAMA); test: Greenhouse postemergence trial, % visual injury; assay type: in vivo; settings: GLXMA, 140 g ae/ha
[30] = system: grain sorghum (Sorghum vulgare, SORVU); test: Greenhouse postemergence trial, % visual injury; assay type: in vivo; settings: SORVU, 140 g ae/ha
[31] = crop, 280 g ae/ha alone, 20-22 d
[32] = Chenopodium album, post-emergence, read-out: % visual injury Obs

## CCCCC(CC)COC(=O)COc1ccc(Cl)cc1C (stereo not shown) [MCPA EHE, 2-ethylhexyl (4-chloro-2-methylphenoxy)acetate]
[1]; read-out: % visual injury, Obs, IPOHE, MCPA EHE 140 g ae/ha
  pest or weed control at 140 g/ha: 80%
[2]; 280 g ae/ha
  % visual injury, Obs: 10%
[3]; read-out: % visual injury, Obs, EPHHL, MCPA EHE 140 g ae/ha
  pest or weed control at 140 g/ha: 0%
[4]; HORVS, 420 g ae/ha
  % visual injury, Obs: 0%
[4]; MCPA EHE 420 g ae/ha
  % visual injury (Obs): 0%
[4]; [31]
  % visual injury Obs: 0%
[5]; MCPA EHE 420 g ae/ha
  % visual injury (Obs): 0%
[5]; 280 g ae/ha
  % visual injury, Obs: 0%
[5]; 420 g ae/ha
  % visual injury, Obs: 0%
[5]; MCPA EHE 140 g ae/ha
  % visual injury, Obs: 3%
[5]; [31]
  % visual injury Obs: 3%
[6]; MCPA EHE 420 g ae/ha
  % visual injury (Obs): 65%
[6]; 280 g ae/ha
  % visual injury, Obs: 70%
[6]; 420 g ae/ha
  % visual injury, Obs: 65%
[7]; 280 g ae/ha alone
  % visual injury Obs: 0%
[8]; 280 g ae/ha
  % visual injury, Obs: 75%
[8]; MCPA EHE 140 g ae/ha
  % visual injury, Obs: 60%
[9]
  plant injury at 140 g/ha: 35%
  plant injury at 280 g/ha: 95%
[10]; 280 g ae/ha
  % visual injury, Obs: 0%
[10]; MCPA EHE 140 g ae/ha
  % visual injury, Obs: 3%
[11]; CIRAR, 280 g ae/ha
  % visual injury, Obs: 75%
[12]; 280 g ae/ha alone
  % visual injury Obs: 0%
[12]; Bassia scoparia, post-emergence, KCHSC, 280 g ae/ha, read-out: % visual injury, Obs
  pest or weed control at 280 g/ha: 0%
[13]; 280 g ae/ha
  pest or weed control at 280 g/ha: 65%
[13]; MCPA EHE 140 g ae/ha
  pest or weed control at 140 g/ha: 0%
[14]; Chenopodium album, post-emergence, 280 g ae/ha alone, 20-22 d, read-out: % visual injury Obs
  pest or weed control at 280 g/ha: 75%
[15]; 280 g ae/ha
  % visual injury, Obs: 0%
[15]; MCPA EHE 140 g ae/ha
  % visual injury, Obs: 0%
[16]; 280 g ae/ha alone
  % visual injury Obs: 73%
[17]; 280 g ae/ha alone
  % visual injury Obs: 20%
[18]; MCPA EHE 140 g ae/ha
  % visual injury, Obs: 70%
[18]; Amaranthus retroflexus, post-emergence, 280 g ae/ha alone, 20-22 d, read-out: % visual injury Obs
  pest or weed control at 280 g/ha: 35%
[19]; 280 g ae/ha
  % visual injury, Obs: 50%
[19]; MCPA EHE 140 g ae/ha
  % visual injury, Obs: 0%
[20]
  pest or weed control at 140 g/ha: 10%

## Nc1c(F)c(-c2ccc3cc[nH]c3c2F)nc(C(=O)[O-])c1Cl.[K+] [compound 7]
[7]; 8.75 g ae/ha alone
  % visual injury Obs: 5%
[7]; 17.5 g ae/ha alone
  % visual injury Obs: 0%
[21]; 6-8 DAA
  % visual injury Obs: 3%
[21]; 14-16 DAA
  % visual injury Obs: 3%
[11]; Cirsium arvense, post-emergence, read-out: % visual injury Obs, 5 g ae/ha alone, 20-22 d
  pest or weed control at 5 g/ha: 50%
[11]; Cirsium arvense, post-emergence, read-out: % visual injury Obs, 8.75 g ae/ha alone, 20-22 d
  pest or weed control at 8.75 g/ha: 25%
[11]; Cirsium arvense, post-emergence, read-out: % visual injury Obs, 10 g ae/ha alone, 20-22 d
  pest or weed control at 10 g/ha: 65%
[22]
  % visual injury Obs: 62%
[23]
  % visual injury Obs: 20%
[24]
  % visual injury Obs: 15%
[25]
  % visual injury Obs: 20%
[26]
  % visual injury Obs: 50%
[12]; 8.75 g ae/ha alone
  % visual injury Obs: 55%
[27]
  % visual injury Obs: 0%
[14]; [32]
  pest or weed control at 5 g/ha: 80%
  pest or weed control at 8.75 g/ha: 60%
  pest or weed control at 10 g/ha: 100%
[16]; 8.75 g ae/ha alone
  % visual injury Obs: 58%
[17]; 8.75 g ae/ha alone
  % visual injury Obs: 5%
[17]; 17.5 g ae/ha alone
  % visual injury Obs: 0%
[28]; 8.75 g ae/ha alone
  % visual injury Obs: 30%
[28]; 17.5 g ae/ha alone
  % visual injury Obs: 40%
[18]; Amaranthus retroflexus, post-emergence, read-out: % visual injury Obs
  pest or weed control at 8.75 g/ha: 70%

## O=C(O)c1c(Cl)ccc2cc(Cl)cnc12 [quinclorac, reference compound]
[1]; read-out: % visual injury, Obs, IPOHE, 140 g ae/ha
  pest or weed control at 140 g/ha: 65%
[2]; 140 g ae/ha
  % visual injury, Obs: 10%
[3]; read-out: % visual injury, Obs, EPHHL, 140 g ae/ha
  pest or weed control at 140 g/ha: 20%
[5]; 140 g ae/ha
  % visual injury, Obs: 0%
[8]; 140 g ae/ha
  % visual injury, Obs: 10%
[10]; 140 g ae/ha
  % visual injury, Obs: 0%
[29]
  % visual injury, Obs: 30%
[12]; Bassia scoparia, post-emergence, KCHSC, 140 g ae/ha, read-out: % visual injury, Obs
  pest or weed control at 140 g/ha: 0%
[30]
  % visual injury, Obs: 0%
[13]; 140 g ae/ha
  pest or weed control at 140 g/ha: 0%
[14]; CHEAL, 140 g ae/ha
  % visual injury, Obs: 5%
[15]; 140 g ae/ha
  % visual injury, Obs: 0%
[16]; BRSNW, 140 g ae/ha
  % visual injury, Obs: 0%
[18]; 140 g ae/ha
  % visual injury, Obs: 10%
